Laboratory results as given in patent US20220325173A1, “RNA FLUORESCENT PROBE FOR RAPIDLY DISTINGUISHING CANCER TISSUE FROM NORMAL TISSUE BASED ON NUCLEOLAR MORPHOLOGICAL CHANGES” (SHANDONG UNIVERSITY, priority 2020, published 2022).

How the values were obtained:
[1] = tested on: cytoplasmic RNA and nucleoli in SiHa cells; assay: Staining live SiHa cells with CAPY-AP, confocal laser scanning microscopy; type: cell-based; conditions: 5 μM CAPY-AP, 30 min, 488 nm laser, green channel 500-600 nm
Experimental: Obtaining method: the SiHa cells are incubated with CAPY-AP for 30 min, and then the cells are irradiated with a 488 nm laser under a confocal laser scanning microscope to obtain micrographs. FIG. 1a is the image of green channel at 500-600 nm from CAPY-AP excited by the 488 nm laser. FIG. 1B is a differential interference contrast (DIC) micrograph scanned by a bright field laser. FIG. 1c is the merge image of FIG. 1a and FIG. 1b.
SiHa cells were cultured in adherent conditions in a culture media containing 10% fetal bovine serum and incubated in a 37° C. and 5% CO2 saturated humidity incubator. The culture media was replaced every 2-3 days for passage once. […]
First, DMSO solution of a 5 mM CAPY-AP was prepared as a stock solution. […] After staining, the cover glass with cells was taken out, excess probes were washed off, the cover glass with the cell growth side facing down covers a glass slide, and the staining locations, fluorescence distribution and brightness changes of the cells were observed under a confocal laser scanning microscope (the cells were irradiated with a 488 nm laser).

[2] = tested on: RNA in SiHa cells; assay: RNase digestion assay: staining of RNase-treated fixed SiHa cells with CAPY-AP; type: cell-based; conditions: RNase 25 μg/mL 2 hours, then 5 μM CAPY-AP 30 min, 488 nm laser, green channel 500-600 nm
Source text: Obtaining method: the fixed SiHa cells treated with RNase and then stained with CAPY-AP. Under the confocal laser scanning microscope, the cells are irradiated with the 488 nm laser to obtain micrographs. FIG. 2a is the image of a green channel at 500-600 nm from CAPY-AP excited by the 488 nm laser. FIG. 2b is a differential interference contrast (DIC) micrograph scanned by a bright field laser. FIG. 2c is the merge image of FIG. 2a and FIG. 2b.
Preparation of fixed cells: first, the cover glass covered with the SiHa cells prepared in Example 2 was immersed in a 4% paraformaldehyde solution for 30 min, and then 0.5%
Triton X-100 was used for permeation at room temperature for 2 min to obtain the fixed cells.
A group of the above fixed cells was taken out and digested in an incubator for 2 hours after RNase with a 25 μg/mL concentration was added, then washed with PBS 3 times and stained with a 5 μM CAPY-AP in a CO2 incubator for 30 min. The cover glass with stained cells was taken out, excess dyes were washed off, the cover glass with a cell growth side facing down covers a glass slide, and the staining locations, fluorescence distribution and brightness changes of the cells were observed under a confocal laser scanning microscope (the cells were irradiated with a 488 nm laser) and recorded.

[3] = tested on: cytoplasmic RNA and nucleoli in human mammary cancer tissue and normal mammary tissue; assay: Fluorescence staining of frozen sections of human mammary cancer tissue and its adjacent normal tissue
Source text: Obtaining method: after the frozen sections of human mammary cancer tissue and its adjacent normal tissue are stained with CAPY-AP and Hoechst 33342, the tissue is irradiated with 488 nm and 405 nm lasers respectively under the confocal laser scanning microscope, and superposition images of two channels (blue channel: 420-450 nm, green channel: 500-600 nm) are obtained. The frozen sections of the same tissue are stained with H&E to obtain H&E staining images. Amongst, the enlarged images come from two box regions of fluorescent staining images of mammary cancer tissue.
(§1) The frozen sections of the mammary cancer tissue and its adjacent normal tissue from intraoperative pathological samples of breast cancer patients (Pathology No. 57977.18) were obtained from the department of pathology, Qilu Hospital of Shandong University. In order to stain, the frozen sections were immersed into a 10% EtOH PBS buffer solution with a 10 μM CAPY-AP and a 10 μM Hoechst 33342 for 10 min, and then observed under a confocal laser scanning microscope (the tissue was irradiated with 488 nm and 405 nm lasers respectively) to obtain fluorescence images. The fluorescence images were compared with the corresponding H&E images.
as §1, with “60551.18)” for “57977.18)”
as §1, with “61864.18)” for “57977.18)”

[4] = 10 μM CAPY-AP with 10 μM Hoechst 33342, 10% EtOH PBS, 10 min, 488 nm and 405 nm lasers

CCn1c2ccccc2c2cc(/C=C/c3cc[n+](CCCN)cc3)ccc21 [CAPY-AP, (E)-1-(3-aminopropyl)-4-(2-(9-ethyl-9H-carbazol-3-yl)vinyl)pyridine-1-ium dibromide]
staining locations and fluorescence distribution in live SiHa cells (FIG. 1) [1]: obvious green light distribution in cytoplasmic and nucleolar areas
fluorescence of fixed SiHa cells after RNase treatment (FIG. 2) [2]: fluorescence in the nucleoli and cytoplasm is almost invisible
fluorescence distribution in frozen sections, Pathology No. 57977.18 (FIG. 3) [3, 4]: obvious green light distribution in cytoplasmic and nucleolar areas, while no fluorescence exists in extracellular matrices
imaging of cytoplasmic RNA and nucleoli in frozen sections, Pathology No. 60551.18 (FIG. 4) [3, 4]: can specifically image the cytoplasmic RNA and nucleoli in the frozen sections of the human mammary pathological tissue
imaging of cytoplasmic RNA and nucleoli in frozen sections, Pathology No. 61864.18 (FIG. 5) [3, 4]: can specifically image the cytoplasmic RNA and nucleoli in the frozen sections of the human mammary pathological tissue
imaging of cytoplasmic RNA and nucleoli in frozen sections, summary of FIG. 3, FIG. 4 and FIG. 5 ([3]; three pathology samples together, CAPY-AP and Hoechst 33342): can specifically image the cytoplasmic RNA and nucleoli in frozen sections of human mammary pathological tissue
